Columns and labels:
Jurkat [1] = test: metabolic activity relative to DMSO, 18 h (ratio); higher = more viable
Outline: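 Jurkat or primary CD4+/CD8+ T cells (naive, or activated 48 h with CD3/CD28 Dynabeads) were treated 18 h with compound at 1 nM–10 µM (log10 steps) at 37 °C, 5% CO2. Then 100 µl of suspension went into 96-well plates with alamarBlue (10% v/v final). After 3.5 h, fluorescence was read on a FluoStar Omega (excitation 544 nm, emission 584 nm). Metabolic activity is normalised to mean DMSO controls.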

Jurkat [2] = test: cytotoxicity relative to DMSO, 18 h (ratio); higher = less cell death (drugs called cytotoxic fall below 1)
Outline: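 Jurkat cells or primary CD4+/CD8+ T cells, either naive or activated for 48 h with CD3/CD28 Dynabeads, were exposed to compound from 1 nM to 10 µM in log10 steps for 18 h at 37 °C, 5% CO2. Aliquots of 100 µl of suspension were then moved to 96-well plates containing IncuCyte Cytotox Dye at 250 nM final. Cytotoxicity was read by IncuCyte fluorescence imaging, with signals corrected for confluency and normalised to the mean of control wells.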

Jurkat [3] = test: confluency relative to DMSO, 18 h (ratio); higher = more viable
Outline: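 Jurkat cells and primary CD4+/CD8+ T cells, naive or activated with CD3/CD28 Dynabeads for 48 h, were treated with compound (1 nM–10 µM, log10 steps) for 18 h at 37 °C. Following transfer of 100 µl into 96-well plates with IncuCyte Cytotox Dye and alamarBlue, wells were imaged at ×10, five images per well, each hour for 3 h. Confluency, obtained with the IncuCyte Basic Analyzer from phase-contrast images, is normalised to the mean of the control wells.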

| Compound | metabolic activity (Jurkat [1]; 1 nM) | metabolic activity (Jurkat [1]; 10 nM) | metabolic activity (Jurkat [1]; 100 nM) | metabolic activity (Jurkat [1]; 1000 nM) | metabolic activity (Jurkat [1]; 10000 nM) | cytotoxicity (Jurkat [2]; 1 nM) | cytotoxicity (Jurkat [2]; 10 nM) | cytotoxicity (Jurkat [2]; 100 nM) | cytotoxicity (Jurkat [2]; 1000 nM) | cytotoxicity (Jurkat [2]; 10000 nM) | confluency (Jurkat [3]; 1 nM) | confluency (Jurkat [3]; 10 nM) | confluency (Jurkat [3]; 100 nM) | confluency (Jurkat [3]; 1000 nM) | confluency (Jurkat [3]; 10000 nM) |
| --- | --- | --- | --- | --- | --- | --- | --- | --- | --- | --- | --- | --- | --- | --- | --- |
| CC1CCN(C(=O)CC#N)CC1N(C)c1ncnc2[nH]ccc12 (stereo not given) [Tofacitinib] | 1.23 | 1.27 | 1.02 | 0.928 | 0.908 | 1.01 | 1.06 | 0.922 | 1.02 | 0.851 | 0.957 | 0.941 | 0.983 | 0.961 | 0.844 |
| Cc1csc(-c2nnc(Nc3ccc(Oc4ncccc4-c4ccnc(N)n4)cc3)c3ccccc23)c1 [AMG-900] | 0.99 | 0.973 | 1.02 | 0.871 | 0.865 | 0.919 | 0.897 | 0.856 | 0.848 | 0.823 | 0.926 | 0.91 | 0.92 | 0.874 | 0.878 |
| CN(C)CC(=O)Nc1ccc2[nH]c(=O)c3ccccc3c2c1 [PJ34] | 0.99 | 1.03 | 1.04 | 0.955 | 1.12 | 0.966 | 0.947 | 0.963 | 0.932 | 1.17 | 0.971 | 0.933 | 0.94 | 0.99 | 0.968 |
| CCNC(=O)CC1N=C(c2ccc(Cl)cc2)c2cc(OC)ccc2-n2c(C)nnc21 (stereo not given) [Molibresib] | 0.916 | 1.06 | 1.18 | 0.878 | 0.887 | 0.992 | 1 | 1.07 | 0.955 | 0.848 | 1.02 | 1.03 | 1.03 | 1 | 0.879 |
| CCOC(=O)Nc1cc(-c2ccc(C)c(NS(C)(=O)=O)c2)nn2c(C)nnc12 [Bromosporine] | 0.994 | 0.938 | 0.79 | 0.846 | 0.811 | 0.92 | 0.952 | 0.977 | 1.19 | 1.11 | 0.963 | 1 | 1.02 | 1.2 | 1.18 |
| COc1cc(N2CCC(N3CCN(C)CC3)CC2)ccc1Nc1ncc(Cl)c(Nc2ccccc2P(C)(C)=O)n1 [Brigatinib] | 0.883 | 0.946 | 0.911 | 0.83 | 0.766 | 0.701 | 0.654 | 0.641 | 0.614 | 0.565 | 0.851 | 1.08 | 1.14 | 1.13 | 1.07 |
| Cc1nc(Nc2ncc(C(=O)Nc3c(C)cccc3Cl)s2)cc(N2CCN(CCO)CC2)n1 [Dasatinib] | 1.07 | 1.07 | 1.01 | 0.989 | 0.845 | 0.993 | 0.967 | 0.979 | 0.994 | 0.882 | 0.949 | 0.946 | 0.958 | 0.965 | 0.91 |
| c1ccc2c(CCNc3ccc(Nc4ccncc4)cc3)c[nH]c2c1 [Serdemetan] | 1.04 | 0.963 | 0.905 | 0.863 | 0.816 | 1.08 | 1.1 | 1.21 | 1.06 | 0.829 | 1.02 | 1.02 | 1.06 | 1.04 | 0.841 |
| O=C(C=Cc1cccc(S(=O)(=O)Nc2ccccc2)c1)NO [Belinostat] | 0.982 | 1.06 | 1.09 | 0.811 | 0.635 | 1.08 | 1.14 | 1.07 | 1.18 | 0.932 | 1.04 | 1.07 | 0.966 | 1.02 | 0.87 |
| CCS(=O)(=O)N1CCN(c2ccc(Nc3ncc(C(N)=O)c(NC4CC4)n3)cc2)CC1 [Cerdulatinib] | 0.846 | 0.868 | 0.898 | 0.941 | 0.775 | 1.03 | 1.02 | 0.925 | 0.858 | 0.921 | 1.04 | 1.09 | 0.975 | 0.903 | 1.07 |
| COc1ccc(-c2cc3c(C)nc(N)nc3n(C3CCC(OCCO)CC3)c2=O)cn1 (stereo not given) | 1.08 | 1.01 | 0.734 | 0.562 | 0.402 | 1.02 | 0.94 | 0.882 | 0.666 | 0.721 | 1.01 | 0.951 | 0.927 | 0.741 | 0.9 |
| O=C(NCC1(c2nc(-c3ccccc3)cs2)CCOCC1)c1cccc(-c2noc(C(F)(F)F)n2)c1 [TMP269] | 0.923 | 0.987 | 1.04 | 1.06 | 1.03 | 0.968 | 1.06 | 0.951 | 0.93 | 0.891 | 0.997 | 1.08 | 0.985 | 0.978 | 0.947 |
| CC(C)CC(C=O)NC(=O)C(CC(C)C)NC(=O)C(CC(C)C)NC(=O)OCc1ccccc1 (stereo not given) [MG-132] | 0.799 | 0.84 | 0.938 | 0.359 | 0.11 | 0.953 | 0.939 | 0.989 | 0.471 | 0.461 | 1.01 | 0.99 | 1.02 | 0.605 | 0.69 |
| CC(=O)Nc1ccc(C(=O)Nc2ccccc2N)cc1 [Tacedinaline] | 0.978 | 0.926 | 0.943 | 0.899 | 0.757 | 0.902 | 0.979 | 0.958 | 0.905 | 0.942 | 0.975 | 1.05 | 1.01 | 0.986 | 0.994 |
| CCC(Nc1ncnc2nc[nH]c12)c1nc2cccc(F)c2c(=O)n1-c1ccccc1 (stereo not given) [Idelalisib] | 0.825 | 0.959 | 0.958 | 0.983 | 0.993 | 1.05 | 1.08 | 1.09 | 0.927 | 1 | 1.07 | 1.09 | 1.1 | 0.986 | 1.07 |

Source: the supplement of paper PMC11919725
